In assay [1] the test system is H3K27 methylation in G401 cell. The assay can be described thus: ELISA (H3K27 methylation) assay. Type of assay: cell-based. The settings on record: Homo sapiens, G-401, ELISA Qualified assay, 48 h, read-out: (c) IC50. The gist of the method: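 G401 cells given 3-fold serial dilutions (eight or twelve points, top 20 μM) for 48 h. Lysate ELISA for H3K27 methylation normalized to H3 signal, % inhibition versus DMSO, IC50 from dose-response fit.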

Assay [2] has as its target wild type PRC2 (wtPRC2) complex (Homo sapiens (Human), UniProt O75530). The assay can be described thus: EED LC-MS assay. Type of assay: biochemical. The following applies: EED LC-MS Qualified assay; read-out: (b) IC50. How it is done:
EED LC-MS Assay Representative compounds of the present invention were serially and separately diluted 3-fold in DMSO to obtain a total of eight or twelve concentrations. […] A 6 μL solution of 3 μM of the peptide substrate H3K27Me0 (histone H3[21-44]-biotin) in reaction buffer was added to initiate each reaction. […] The data were then fit to a dose response equation using the program Helios to get the IC50 values of the test compound.

The target of a further assay is EED (1-441)-His protein (Homo sapiens (Human), UniProt O75530). The assay can be described thus: EED-H3K27Me3 peptide competition binding assay by AlphaScreen. The following applies: EED Alphascreen binding Qualified assay.
Sequence of EED (1-441)-His protein (O75530 whole entry): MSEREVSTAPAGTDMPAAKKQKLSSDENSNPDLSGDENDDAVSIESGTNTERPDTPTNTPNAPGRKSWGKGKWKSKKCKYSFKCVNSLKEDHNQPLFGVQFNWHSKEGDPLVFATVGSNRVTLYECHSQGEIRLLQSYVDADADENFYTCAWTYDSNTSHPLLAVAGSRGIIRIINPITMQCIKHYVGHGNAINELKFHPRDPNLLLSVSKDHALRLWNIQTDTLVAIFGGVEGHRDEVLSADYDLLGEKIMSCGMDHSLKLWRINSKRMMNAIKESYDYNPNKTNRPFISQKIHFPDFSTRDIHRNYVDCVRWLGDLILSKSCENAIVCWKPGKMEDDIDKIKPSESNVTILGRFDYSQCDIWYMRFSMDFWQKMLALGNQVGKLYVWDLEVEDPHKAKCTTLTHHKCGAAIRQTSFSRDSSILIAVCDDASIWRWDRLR

We go through 23 compounds from US10676479B2, “Imidazolepyridine compounds and uses thereof” (Novartis AG, priority 2016, dated 2020).

Sequence of wild type PRC2 (wtPRC2) complex (O75530 whole entry): as above
Sequence of wild type PRC2 (wtPRC2) complex (Q15910 whole entry partner): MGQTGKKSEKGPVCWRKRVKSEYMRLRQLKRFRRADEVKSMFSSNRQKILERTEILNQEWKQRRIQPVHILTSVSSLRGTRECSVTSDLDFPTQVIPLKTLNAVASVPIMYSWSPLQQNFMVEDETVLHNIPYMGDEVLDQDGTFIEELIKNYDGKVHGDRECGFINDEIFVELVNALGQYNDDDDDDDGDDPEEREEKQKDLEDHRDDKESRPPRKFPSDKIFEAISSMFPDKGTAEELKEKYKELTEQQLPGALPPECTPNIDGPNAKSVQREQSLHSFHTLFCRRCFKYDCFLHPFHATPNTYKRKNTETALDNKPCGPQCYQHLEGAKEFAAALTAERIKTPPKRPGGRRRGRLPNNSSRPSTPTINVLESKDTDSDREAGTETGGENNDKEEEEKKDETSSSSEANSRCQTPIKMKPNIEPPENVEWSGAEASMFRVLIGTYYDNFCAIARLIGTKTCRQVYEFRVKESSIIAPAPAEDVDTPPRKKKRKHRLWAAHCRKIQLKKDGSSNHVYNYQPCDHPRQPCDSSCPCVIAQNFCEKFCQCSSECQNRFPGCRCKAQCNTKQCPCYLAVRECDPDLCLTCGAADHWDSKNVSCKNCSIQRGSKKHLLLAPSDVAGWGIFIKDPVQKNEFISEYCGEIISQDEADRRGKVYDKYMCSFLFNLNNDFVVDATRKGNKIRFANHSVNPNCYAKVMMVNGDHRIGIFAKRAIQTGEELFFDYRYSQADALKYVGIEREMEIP
Sequence of wild type PRC2 (wtPRC2) complex (Q15022 whole entry partner): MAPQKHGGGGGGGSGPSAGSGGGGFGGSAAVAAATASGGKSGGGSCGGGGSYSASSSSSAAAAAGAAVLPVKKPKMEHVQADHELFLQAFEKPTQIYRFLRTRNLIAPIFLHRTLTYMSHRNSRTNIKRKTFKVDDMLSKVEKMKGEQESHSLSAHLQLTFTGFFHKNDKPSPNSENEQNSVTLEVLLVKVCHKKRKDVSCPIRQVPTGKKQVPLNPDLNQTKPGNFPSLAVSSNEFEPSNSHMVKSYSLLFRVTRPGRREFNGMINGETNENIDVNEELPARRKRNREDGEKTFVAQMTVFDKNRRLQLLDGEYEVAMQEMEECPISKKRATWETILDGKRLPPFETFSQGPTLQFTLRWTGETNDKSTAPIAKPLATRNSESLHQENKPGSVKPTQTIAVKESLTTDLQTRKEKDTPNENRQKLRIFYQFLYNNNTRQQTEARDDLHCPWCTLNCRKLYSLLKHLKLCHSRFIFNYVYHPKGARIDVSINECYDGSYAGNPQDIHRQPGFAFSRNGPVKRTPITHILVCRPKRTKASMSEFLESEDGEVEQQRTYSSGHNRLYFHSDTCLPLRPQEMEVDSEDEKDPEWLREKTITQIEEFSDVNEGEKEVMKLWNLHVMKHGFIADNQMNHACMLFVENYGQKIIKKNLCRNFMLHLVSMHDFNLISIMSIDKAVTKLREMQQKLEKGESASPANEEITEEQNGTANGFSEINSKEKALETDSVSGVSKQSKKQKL

On to `CC(c1ccc(-c2cnc(NCc3c(F)ccc4c3CCO4)n3cnc(C#N)c23)cc1)N1CCCC1` (stereo not drawn) [Example 76, 5-(((5-fluoro-2,3-dihydrobenzofuran-4-yl)methyl)amino)-8-(4-(1-(pyrrolidin-1-yl)ethyl)phenyl)imidazo[1,5-c]pyrimidine-1-carbonitrile], for which the figures for the IC50 (in assay [1]; in assay [2]; at EED (1-441)-His protein) were 5.4 nM, 15.3 nM and 5.6 nM, respectively.

Consider `N#Cc1ncn2c(NCc3c(F)ccc4c3CCO4)ncc(-c3cccnc3CO)c12` [Example 78, 5-(((5-fluoro-2,3-dihydrobenzofuran-4-yl)methyl)amino)-8-(2-(hydroxymethyl)pyridin-3-yl)imidazo[1,5-c]pyrimidine-1-carbonitrile], for which the IC50 turned out to be 17.9 nM in assay [1], 16.2 nM in assay [2] and 5.1 nM at EED (1-441)-His protein.

`CS(=O)(=O)c1ccc(-c2cnc(NCc3c(F)ccc4c3CCO4)n3cnc(C#N)c23)cn1` [Example 79, 5-(((5-fluoro-2,3-dihydrobenzofuran-4-yl)methyl)amino)-8-(6-(methylsulfonyl)pyridin-3-yl)imidazo[1,5-c]pyrimidine-1-carbonitrile]: the results for the IC50 (in assay [1]; in assay [2]; on EED (1-441)-His protein) were 6.6 nM, 16.7 nM and 5.3 nM, respectively.

As for `CCC(O)c1ncc(-c2cnc(NCc3c(F)ccc4c3CCO4)n3cnc(C#N)c23)c(C)n1` (stereo not drawn) [Example 80, 5-(((5-fluoro-2,3-dihydrobenzofuran-4-yl)methyl)amino)-8-(2-(1-hydroxypropyl)-4-methylpyrimidin-5-yl)imidazo[1,5-c]pyrimidine-1-carbonitrile], the IC50 in assay [1] was 14.2 nM; in assay [2] it was 34.5 nM; on EED (1-441)-His protein it was 10.5 nM.

In the case of `N#Cc1ncn2c(NCc3c(F)ccc4c3CCO4)ncc(-c3ccc(N4CCOCC4)nc3)c12` [Example 82, 5-(((5-fluoro-2,3-dihydrobenzofuran-4-yl)methyl)amino)-8-(6-morpholinopyridin-3-yl)imidazo[1,5-c]pyrimidine-1-carbonitrile], the half-maximal inhibitory concentration (IC50) in assay [1] is 6.8 nM; in assay [2] it was 18.1 nM; at EED (1-441)-His protein, 8.3 nM.

For the compound `Cc1nc(N2CC(C)NC(C)C2)ncc1-c1cnc(NCc2c(F)ccc3c2CCO3)n2cnc(C#N)c12` (stereo not drawn) [Example 83, 8-(2-(3,5-dimethylpiperazin-1-yl)-4-methylpyrimidin-5-yl)-5-(((5-fluoro-2,3-dihydrobenzofuran-4-yl)methyl)amino)imidazo[1,5-c]pyrimidine-1-carbonitrile], the 50% inhibitory concentration (IC50) came to 13.1 nM in assay [1], 5.7 nM in assay [2] and 2.3 nM at EED (1-441)-His protein.

For `Cc1nc(N2CCOCC2)ncc1-c1cnc(NCc2c(F)ccc3c2CCO3)n2cnc(C#N)c12` [Example 84, 5-(((5-fluoro-2,3-dihydrobenzofuran-4-yl)methyl)amino)-8-(4-methyl-2-morpholinopyrimidin-5-yl)imidazo[1,5-c]pyrimidine-1-carbonitrile], the IC50 in assay [1] came out at 11.7 nM; in assay [2] it was 11 nM; on EED (1-441)-His protein, 2.4 nM.

Turning to `Cn1cncc1-c1cnc(NCc2c(F)ccc3c2CCO3)n2cnc(C#N)c12` [Example 85, 5-(((5-fluoro-2,3-dihydrobenzofuran-4-yl)methyl)amino)-8-(1-methyl-1H-imidazol-5-yl)imidazo[1,5-c]pyrimidine-1-carbonitrile], the values for the IC50 (in assay [1]; in assay [2]; at EED (1-441)-His protein) were 2.8 nM, 17.2 nM and 4.5 nM, respectively.

For the compound `N#Cc1ncn2c(NCc3c(F)ccc4c3CCO4)ncc(-c3ccc(N4CCNCC4)nc3)c12` [Example 86, 5-(((5-fluoro-2,3-dihydrobenzofuran-4-yl)methyl)amino)-8-(6-(piperazin-1-yl)pyridin-3-yl)imidazo[1,5-c]pyrimidine-1-carbonitrile], the IC50 in assay [1] is 2.5 nM; in assay [2], 17.6 nM; on EED (1-441)-His protein, 4.5 nM.

For `CC(=O)N1CCN(c2ccc(-c3cnc(NCc4c(F)ccc5c4CCO5)n4cnc(C#N)c34)cn2)CC1` [Example 87, 8-(6-(4-acetylpiperazin-1-yl)pyridin-3-yl)-5-(((5-fluoro-2,3-dihydrobenzofuran-4-yl)methyl)amino)imidazo[1,5-c]pyrimidine-1-carbonitrile], the IC50 in assay [1] was found to be 13.4 nM; in assay [2], 29.7 nM; on EED (1-441)-His protein, 17 nM.

On to `Cc1nn(CCO)c(C)c1-c1cnc(NCc2c(F)ccc3c2CCO3)n2cnc(C#N)c12` [Example 88, 5-(((5-fluoro-2,3-dihydrobenzofuran-4-yl)methyl)amino)-8-(1-(2-hydroxyethyl)-3,5-dimethyl-1H-pyrazol-4-yl)imidazo[1,5-c]pyrimidine-1-carbonitrile], for which the IC50 in assay [1] worked out at 13 nM; in assay [2], 11.7 nM; on EED (1-441)-His protein, 3.4 nM.

With `COc1cc(CNc2ncc(-c3cccnc3C)c3c(C#N)ncn23)c(F)cc1F` [Example 89, 5-((2,4-difluoro-5-methoxybenzyl)amino)-8-(2-methylpyridin-3-yl)imidazo[1,5-c]pyrimidine-1-carbonitrile], the IC50 in assay [1] was found to be 195 nM; in assay [2] it was 42.5 nM; on EED (1-441)-His protein it was 29.6 nM.

With `COc1cccc(F)c1CNc1ncc(-c2cccnc2C)c2c(C#N)ncn12` [Example 90, 5-((2-fluoro-6-methoxybenzyl)amino)-8-(2-methylpyridin-3-yl)imidazo[1,5-c]pyrimidine-1-carbonitrile], the IC50 worked out at 337 nM in assay [1], 56.8 nM in assay [2] and 139 nM on EED (1-441)-His protein.

In the case of `CCOC(=O)c1ncn2c(NCc3c(F)ccc4c3CCO4)ncc(Br)c12` [Example 91, ethyl 8-bromo-5-(((5-fluoro-2,3-dihydrobenzofuran-4-yl)methyl)amino)imidazo[1,5-c]pyrimidine-1-carboxylate], the figures for the IC50 (in assay [1]; in assay [2]; at EED (1-441)-His protein) were 32 nM, 8 nM and 8.5 nM, respectively.

In the case of `CCOC(=O)c1ncn2c(NCc3c(F)ccc4c3CCO4)ncc(-c3ccc(S(C)(=O)=O)cc3)c12` [Example 92, ethyl 5-(((5-fluoro-2,3-dihydrobenzofuran-4-yl)methyl)amino)-8-(4-(methylsulfonyl)phenyl)imidazo[1,5-c]pyrimidine-1-carboxylate], the 50% inhibitory concentration (IC50) in assay [1] is 0.7 nM; in assay [2], 5.9 nM; on EED (1-441)-His protein it was 5.4 nM.

In the case of `CCOC(=O)c1ncn2c(NCc3c(F)ccc4c3CCO4)ncc(-c3ccc(C)nc3C)c12` [Example 93, ethyl 8-(2,6-dimethylpyridin-3-yl)-5-(((5-fluoro-2,3-dihydrobenzofuran-4-yl)methyl)amino)imidazo[1,5-c]pyrimidine-1-carboxylate], the IC50 was 5.1 nM in assay [1], 5.7 nM in assay [2] and 4.9 nM on EED (1-441)-His protein.

As to `CCOC(=O)c1ncn2c(NCc3c(F)ccc4c3CCO4)ncc(-c3cnc(C)nc3C)c12` [Example 94, ethyl 8-(2,4-dimethylpyrimidin-5-yl)-5-(((5-fluoro-2,3-dihydrobenzofuran-4-yl)methyl)amino)imidazo[1,5-c]pyrimidine-1-carboxylate], the IC50 amounted to 3.6 nM in assay [1], 5.7 nM in assay [2] and 4.3 nM at EED (1-441)-His protein.

With `CCOC(=O)c1ncn2c(NCc3cc(OC)c(F)cc3F)ncc(-c3cccnc3C)c12` [Example 96, ethyl 5-((2,4-difluoro-5-methoxybenzyl)amino)-8-(2-methylpyridin-3-yl)imidazo[1,5-c]pyrimidine-1-carboxylate], the IC50 in assay [1] was found to be 114 nM; in assay [2], 16.8 nM; at EED (1-441)-His protein, 15.8 nM.

Turning to `CCOC(=O)c1ncn2c(NCc3cc(OC)c(F)cc3F)ncc(-c3ccc(S(=O)(=O)N(C)C)cc3)c12` [Example 97, ethyl 5-((2,4-difluoro-5-methoxybenzyl)amino)-8-(4-(N,N-dimethylsulfamoyl)phenyl)imidazo[1,5-c]pyrimidine-1-carboxylate], the concentration for half-maximal inhibition (IC50) in assay [1] amounted to 200 nM; in assay [2] it was 16.7 nM; on EED (1-441)-His protein, 19.6 nM.

On to `CCOC(=O)c1ncn2c(NCc3c(F)cccc3OC)ncc(-c3cnc(C)nc3C)c12` [Example 98, ethyl 8-(2,4-dimethylpyrimidin-5-yl)-5-((2-fluoro-6-methoxybenzyl)amino)imidazo[1,5-c]pyrimidine-1-carboxylate], for which the figures for the IC50 (in assay [1]; in assay [2]; at EED (1-441)-His protein) were 31.6 nM, 24.8 nM and 24 nM, respectively.

`CCOC(=O)c1ncn2c(NCc3c(F)cccc3OC)ncc(-c3cccnc3C)c12` [Example 99, ethyl 5-((2-fluoro-6-methoxybenzyl)amino)-8-(2-methylpyridin-3-yl)imidazo[1,5-c]pyrimidine-1-carboxylate]: the IC50 in assay [1] is 68.6 nM; in assay [2] it was 14.6 nM; on EED (1-441)-His protein, 16 nM.

As to `Cc1ncc(-c2cnc(NCc3c(F)ccc4c3CCO4)n3cnc(S(C)(=O)=O)c23)c(C)n1` [Example 101, 8-(2,4-dimethylpyrimidin-5-yl)-N-((5-fluoro-2,3-dihydrobenzofuran-4-yl)methyl)-1-(methylsulfonyl)imidazo[1,5-c]pyrimidin-5-amine], the IC50 in assay [1] amounted to 9.1 nM; in assay [2] it was 13.3 nM; at EED (1-441)-His protein, 3.6 nM.

For the compound `CS(=O)(=O)c1ncn2c(NCc3c(F)ccc4c3CCO4)ncc(-c3cccnc3)c12` [Example 102, N-((5-fluoro-2,3-dihydrobenzofuran-4-yl)methyl)-1-(methylsulfonyl)-8-(pyridin-3-yl)imidazo[1,5-c]pyrimidin-5-amine], the half-inhibitory concentration (IC50) came to 2.4 nM in assay [1], 17 nM in assay [2] and 6.9 nM on EED (1-441)-His protein.

In general, IC50 refers to the midpoint of a concentration-inhibition curve.
